In PubChem BioAssay (NCI) one finds TGI and GI50 data, which are given here for 14 molecules.

Some test systems named below: HOP-92 NSCLC; SK-MEL-5 melanoma; IGROV1 ovarian; ACHN renal; SK-MEL-28 melanoma; A549 NSCLC; HL-60(TB) leukemia; UO-31 renal; UACC-62 melanoma; NCI-H23 lung.
Holding throughout (assay): NCI anticancer screen, dose series, 48 h

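1) Cells in 96-well plates. 2) Compound, 48 h, 5 concentrations. 3) Linear interpolation between surrounding doses. 4) Unreached endpoint = highest concentration. The concentration for 50% growth inhibition is given as GI50. At the TGI there is no net growth.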

In the case of `CN(C)CCC1(C2=CCCC2)CC/C(=C\c2ccccc2Cl)C1=O` (stereo not given), the TGI with HOP-92 NSCLC stood at 26.3 µM; in the experiment with SK-MEL-5 melanoma it was 26.7 µM; in the experiment with IGROV1 ovarian, 37.5 µM; in the experiment on ACHN renal it was 31.1 µM; in the experiment with SK-MEL-28 melanoma it was 26.2 µM; in the experiment with A549 NSCLC, 28.4 µM. Further, the TGI in the experiment with HL-60(TB) leukemia stood at 19.6 µM; in the experiment with UO-31 renal, 20.1 µM; in the experiment on UACC-62 melanoma, 29.8 µM; in the experiment with NCI-H23 lung, 30 µM.
Consider `C=C1CCC2C3(C)COC(c4ccc(Cl)cc4)OC3CCC2(C)C1/C=C/C1=CCOC1=O` (stereo not given), for which the GI50 in the experiment with HOP-92 NSCLC was 9.96 µM; with SK-MEL-5 melanoma, 1.88 µM; in the experiment with IGROV1 ovarian, 50 µM; in the experiment on ACHN renal, 12.1 µM; in the experiment on SK-MEL-28 melanoma, 21.7 µM; in the experiment with A549 NSCLC, 2.37 µM. Also, the GI50 with HL-60(TB) leukemia is 17 µM; in the experiment on UO-31 renal, more than 100 µM; in the experiment with UACC-62 melanoma, 4 µM; in the experiment with NCI-H23 lung, 3.19 µM. The TGI with HOP-92 NSCLC was 39.1 µM; in the experiment on SK-MEL-5 melanoma, 31.1 µM; with IGROV1 ovarian, more than 100 µM; in the experiment with ACHN renal it was 50.9 µM; with SK-MEL-28 melanoma it was more than 100 µM; in the experiment on A549 NSCLC it was 32.5 µM. Also, the TGI in the experiment on HL-60(TB) leukemia, in the experiment with UO-31 renal, in the experiment on UACC-62 melanoma and in the experiment on NCI-H23 lung was more than 100 µM in each case.
In the case of `CSc1ccc(C2=NN(C(C)=O)C(c3ccc(F)cc3)C2)cc1` (stereo not given), the GI50 in the experiment on HOP-92 NSCLC was 10.1 µM; in the experiment with SK-MEL-5 melanoma, 12.9 µM; in the experiment with IGROV1 ovarian it was 7.73 µM; with ACHN renal it was 16.9 µM; with SK-MEL-28 melanoma, 17 µM; with A549 NSCLC, 12.1 µM. In addition, the GI50 with HL-60(TB) leukemia is 5.56 µM; with UO-31 renal, 14.2 µM; in the experiment with UACC-62 melanoma it was 7.97 µM; in the experiment with NCI-H23 lung, 16.5 µM. In addition, the TGI was 22.1 µM in the experiment with HOP-92 NSCLC; 26.4 µM in the experiment with SK-MEL-5 melanoma; 34.8 µM with IGROV1 ovarian; 35.6 µM in the experiment with ACHN renal; 34.2 µM in the experiment on SK-MEL-28 melanoma; 30.9 µM with A549 NSCLC. Moreover, the TGI in the experiment on HL-60(TB) leukemia amounted to 23.6 µM; in the experiment on UO-31 renal it was 29.8 µM; in the experiment with UACC-62 melanoma, 21.1 µM; in the experiment on NCI-H23 lung, 34.9 µM.
Regarding `COC(=O)c1ccc2c(c1)c1c(C)c3ccncc3c(C)c1n2C`, the GI50 is 0.378 µM in the experiment with HOP-92 NSCLC; 0.232 µM in the experiment with SK-MEL-5 melanoma; 0.0801 µM in the experiment with IGROV1 ovarian; 0.0519 µM in the experiment with ACHN renal; 0.441 µM in the experiment on SK-MEL-28 melanoma; 0.484 µM in the experiment on A549 NSCLC. In addition, the GI50 is 1.13 µM in the experiment with HL-60(TB) leukemia, 0.0717 µM in the experiment on UO-31 renal, 0.191 µM in the experiment on UACC-62 melanoma and 0.304 µM with NCI-H23 lung. In addition, the TGI in the experiment with HOP-92 NSCLC was more than 100 µM; with SK-MEL-5 melanoma it was 0.912 µM; in the experiment with IGROV1 ovarian, more than 100 µM; in the experiment with ACHN renal it was more than 100 µM; in the experiment on SK-MEL-28 melanoma, 50.1 µM; with A549 NSCLC, more than 100 µM. Further, the TGI with HL-60(TB) leukemia stood at 39.4 µM; with UO-31 renal it was 77.5 µM; in the experiment with UACC-62 melanoma, 2.63 µM; in the experiment with NCI-H23 lung it was 16.1 µM.
On to `COC(=O)C(C(=O)C(=O)Nc1ccc(OC)cc1[N+](=O)[O-])c1nc2cc(C)c(C)cc2[nH]c1=O` (stereo not given), for which the TGI in the experiment with HOP-92 NSCLC, with SK-MEL-5 melanoma, with IGROV1 ovarian, with ACHN renal, in the experiment with SK-MEL-28 melanoma and in the experiment with A549 NSCLC was more than 100 µM each time. Besides, the TGI with HL-60(TB) leukemia, with UO-31 renal, in the experiment with UACC-62 melanoma and with NCI-H23 lung was more than 100 µM throughout.
`COCOCC[C@@H]1CC=CC(NC(=O)OCc2ccccc2)C1/C=C/C(=O)CCC1OCCO1` (stereo not given in full): the TGI in the experiment on HOP-92 NSCLC is more than 100 µM; with SK-MEL-5 melanoma, more than 100 µM; in the experiment on IGROV1 ovarian, more than 100 µM; in the experiment with ACHN renal, more than 100 µM; in the experiment on SK-MEL-28 melanoma, more than 63.3 µM; with A549 NSCLC, more than 100 µM. For the same molecule, the TGI was 51 µM in the experiment on HL-60(TB) leukemia, more than 100 µM with UO-31 renal, more than 75.4 µM in the experiment with UACC-62 melanoma and 97.8 µM with NCI-H23 lung.
Regarding `COc1cc(-c2ccc(NC(=O)NC3CC3)c(OC)c2)ccc1NC(=O)NC1CC1`, the GI50 in the experiment on HOP-92 NSCLC is 7.66 µM; in the experiment with SK-MEL-5 melanoma it was 4.84 µM; in the experiment on IGROV1 ovarian, 5.83 µM; in the experiment on ACHN renal, 7.05 µM; in the experiment with SK-MEL-28 melanoma, more than 29.3 µM; in the experiment on A549 NSCLC, 3.89 µM. Further, the GI50 in the experiment on HL-60(TB) leukemia is 3.75 µM; in the experiment on UO-31 renal, 5.27 µM; in the experiment with UACC-62 melanoma it was 5.71 µM; in the experiment on NCI-H23 lung, more than 68.5 µM. Further, the TGI in the experiment with HOP-92 NSCLC is more than 67.7 µM; in the experiment with SK-MEL-5 melanoma, more than 100 µM; with IGROV1 ovarian, 52.9 µM; in the experiment with ACHN renal it was more than 100 µM; in the experiment with SK-MEL-28 melanoma, more than 100 µM; with A549 NSCLC it was more than 100 µM. Besides, the TGI with HL-60(TB) leukemia, in the experiment on UO-31 renal, in the experiment with UACC-62 melanoma and in the experiment on NCI-H23 lung was more than 100 µM in each case.
For `CC(O)CN1c2ccccc2Sc2ccc(Cl)cc21` (stereo not given), the TGI in the experiment with HOP-92 NSCLC, in the experiment with SK-MEL-5 melanoma, in the experiment on IGROV1 ovarian, with ACHN renal, with SK-MEL-28 melanoma and in the experiment with A549 NSCLC was more than 10 µM throughout. The TGI in the experiment with HL-60(TB) leukemia, with UO-31 renal, in the experiment on UACC-62 melanoma and in the experiment on NCI-H23 lung was more than 10 µM in each case.
As for `CCCN1C(=O)/C(=C/c2ccc(O)cc2)SC1=Nc1ccc(OC)cc1`, the GI50 with HOP-92 NSCLC was 6.91 µM; in the experiment with SK-MEL-5 melanoma, 11 µM; in the experiment with IGROV1 ovarian, 30 µM; with ACHN renal, 12.7 µM; in the experiment on SK-MEL-28 melanoma it was 19.4 µM; in the experiment on A549 NSCLC, 12.5 µM. Besides, the GI50 with HL-60(TB) leukemia is 17.1 µM; with UO-31 renal it was 25.7 µM; in the experiment with UACC-62 melanoma, 17.6 µM; in the experiment on NCI-H23 lung, 16.2 µM. Moreover, the TGI was 23.2 µM with HOP-92 NSCLC; 26 µM with SK-MEL-5 melanoma; more than 100 µM with IGROV1 ovarian; 25.3 µM in the experiment with ACHN renal; 41 µM in the experiment with SK-MEL-28 melanoma; 26.1 µM with A549 NSCLC. Also, the TGI with HL-60(TB) leukemia was 50.2 µM; in the experiment on UO-31 renal, more than 100 µM; in the experiment with UACC-62 melanoma it was 33.7 µM; in the experiment with NCI-H23 lung, 32.4 µM.
Turning to `Cc1nc(Nc2ccccc2)sc1C(=O)CC(=O)C(=O)NC12CC3CC(CC(C3)C1)C2`, the TGI in the experiment on HOP-92 NSCLC was 89.4 µM; with SK-MEL-5 melanoma, more than 100 µM; in the experiment on IGROV1 ovarian, more than 100 µM; with ACHN renal, more than 100 µM; in the experiment with SK-MEL-28 melanoma, more than 100 µM; in the experiment on A549 NSCLC, more than 100 µM. The TGI in the experiment on HL-60(TB) leukemia, in the experiment with UO-31 renal, with UACC-62 melanoma and in the experiment with NCI-H23 lung was more than 100 µM throughout.
For `COC(=O)C(=O)C(C(=O)C(=O)Nc1ccc(C)cc1)c1nc2ccc(C(=O)c3ccccc3)cc2[nH]c1=O` (stereo not given), the TGI with HOP-92 NSCLC, in the experiment on SK-MEL-5 melanoma, with IGROV1 ovarian, with ACHN renal, with SK-MEL-28 melanoma and with A549 NSCLC was more than 100 µM in each case. Besides, the TGI in the experiment with HL-60(TB) leukemia, in the experiment with UO-31 renal, in the experiment with UACC-62 melanoma and in the experiment with NCI-H23 lung was more than 100 µM each time.
In the case of `O=C1C2ON3c4ccccc4C(=O)C3(c3ccccc3)C2C(=O)N1c1ccccc1` (stereo not given), the TGI in the experiment on HOP-92 NSCLC, in the experiment on SK-MEL-5 melanoma, with IGROV1 ovarian, in the experiment with ACHN renal, with SK-MEL-28 melanoma and with A549 NSCLC was more than 100 µM in each case. Moreover, the TGI in the experiment with HL-60(TB) leukemia, in the experiment on UO-31 renal, in the experiment on UACC-62 melanoma and in the experiment with NCI-H23 lung was more than 100 µM throughout.
With `CN(O)C(=S)c1ccccc1`, the TGI in the experiment on HOP-92 NSCLC is more than 100 µM; in the experiment with SK-MEL-5 melanoma, 16.3 µM; in the experiment with IGROV1 ovarian, 56.3 µM; with ACHN renal, 37.7 µM; in the experiment with SK-MEL-28 melanoma it was more than 100 µM; in the experiment with A549 NSCLC, more than 100 µM. The TGI in the experiment with HL-60(TB) leukemia is 7.04 µM; in the experiment with UO-31 renal it was 21.6 µM; in the experiment with UACC-62 melanoma it was 6.21 µM; with NCI-H23 lung, 19.8 µM.
Take `Cc1cn2c(/C=C3/C(=O)Nc4ccc(F)cc43)c(C)nc2s1`: the GI50 in the experiment with HOP-92 NSCLC is 4.74 µM; in the experiment on SK-MEL-5 melanoma it was 2.31 µM; in the experiment with IGROV1 ovarian, 2.14 µM; in the experiment on ACHN renal, 17.2 µM; in the experiment on SK-MEL-28 melanoma, 4.11 µM; in the experiment with A549 NSCLC, 6.37 µM. Also, the GI50 in the experiment on HL-60(TB) leukemia was 1.98 µM; with UO-31 renal, 6.62 µM; in the experiment with UACC-62 melanoma it was 3.85 µM; in the experiment with NCI-H23 lung, 7.85 µM. The TGI is 29 µM in the experiment with HOP-92 NSCLC; 9.61 µM in the experiment on SK-MEL-5 melanoma; 25 µM in the experiment with IGROV1 ovarian; more than 50 µM with ACHN renal; more than 50 µM in the experiment on SK-MEL-28 melanoma; more than 50 µM in the experiment on A549 NSCLC. Also, the TGI with HL-60(TB) leukemia is 8.15 µM; with UO-31 renal, 40.8 µM; in the experiment with UACC-62 melanoma it was 48.3 µM; in the experiment on NCI-H23 lung, more than 50 µM.
